What was measured:
KCC2 [1] = target: T1, KCC2 (Homo sapiens, UniProt Q9H2X9); assay: biotinylation, plasma membrane level of KCC2 in HEK-293 cells; format: cell-based; conditions: 15 min
T1 construct: expressed in transfected cells; host or cells: HEK-293 (ATCC CRL-1573)
T1 sequence (Q9H2X9 1-1116 isoform Q9H2X9-2): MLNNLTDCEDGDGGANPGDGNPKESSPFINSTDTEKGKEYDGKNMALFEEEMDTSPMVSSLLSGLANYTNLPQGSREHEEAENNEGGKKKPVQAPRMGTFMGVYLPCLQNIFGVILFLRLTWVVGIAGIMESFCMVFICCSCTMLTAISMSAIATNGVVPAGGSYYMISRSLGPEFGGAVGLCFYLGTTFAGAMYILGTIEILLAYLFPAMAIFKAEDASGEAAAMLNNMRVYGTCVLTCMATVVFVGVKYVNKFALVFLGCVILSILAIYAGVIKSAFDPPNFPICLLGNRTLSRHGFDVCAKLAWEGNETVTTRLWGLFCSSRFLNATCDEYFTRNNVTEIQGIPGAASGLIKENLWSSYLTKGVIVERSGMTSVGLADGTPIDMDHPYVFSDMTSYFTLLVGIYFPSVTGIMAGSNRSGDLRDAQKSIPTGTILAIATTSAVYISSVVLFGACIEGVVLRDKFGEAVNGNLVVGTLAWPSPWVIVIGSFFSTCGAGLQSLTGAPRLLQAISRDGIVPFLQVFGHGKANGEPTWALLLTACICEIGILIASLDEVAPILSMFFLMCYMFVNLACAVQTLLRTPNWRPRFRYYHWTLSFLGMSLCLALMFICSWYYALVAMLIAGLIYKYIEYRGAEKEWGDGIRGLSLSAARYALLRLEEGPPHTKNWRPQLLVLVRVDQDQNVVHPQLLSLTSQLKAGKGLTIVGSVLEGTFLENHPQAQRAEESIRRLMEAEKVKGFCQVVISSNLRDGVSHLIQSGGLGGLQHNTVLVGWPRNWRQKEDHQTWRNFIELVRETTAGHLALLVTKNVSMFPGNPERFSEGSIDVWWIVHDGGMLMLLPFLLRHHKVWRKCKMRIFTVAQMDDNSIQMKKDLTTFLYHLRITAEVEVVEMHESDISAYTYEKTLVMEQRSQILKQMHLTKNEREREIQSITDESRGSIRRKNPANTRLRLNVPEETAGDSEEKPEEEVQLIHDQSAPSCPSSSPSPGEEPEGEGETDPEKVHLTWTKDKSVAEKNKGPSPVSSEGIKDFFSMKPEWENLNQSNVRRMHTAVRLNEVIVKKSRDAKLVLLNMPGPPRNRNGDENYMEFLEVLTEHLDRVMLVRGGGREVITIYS
Protocol: Cell Culture and biotinylation. HEK-293 cells were purchased from ATCC (CRL-1573) and transfected with human KCC2 and GFP expression plasmids using Lipofectamine 2000. Cells were utilized for experimentation 48-72 h following transfection. Cells were biotinylated at 4° C. using NHS-Biotin. Following lysis and purification on immobilized avidin beads, cell surface and total fractions were subject to immunoblotting as outlined previously (Conway et al., 2017, supra).
The reliability of the biotinylation procedure was assessed via immunoblotting with antibodies against the cytosolic protein actin. Actin was present in the total lysates but was absent from the surface fractions (FIG. 2C).

[2] = test system: acute brain slices exposed to 0-Mg; assay: late recurrent discharges in acute brain slices exposed to 0-Mg
KCC2 [3] = target: T1, KCC2; assay: FLIPR TI+ flux assay, HEK-293 cells expressing KCC2; format: cell-based
Protocol: A multi-tiered high-throughput screening assay was used, leveraging a proprietary library of 1.3 million small molecule compounds from AstraZeneca (Cambridge, UK) to identify chemical entities capable of activating KCC2. A single point concentration of 30 μM was used to identify potassium flux using an established thallium (TI+) influx FLIPR assay as the primary read out in HEK-293 cells overexpressing KCC2 (Cardarelli et al., Nat. Med. 23, 1394-1396 (2017); Conway et al., J Biol Chem 292, 21253-21263 (2017); Lee et al., 2022, supra).
Cell Culture and biotinylation. […]
FLIPR TI Flux assay. HEK-293 cells were washed with HBSS, and then incubated with loading buffer containing TI sensitive fluorescent dye (https://www.moleculardevices.com), 20 μM bumetanide 20 μM ouabain and 2.5 mM probenecid for 1 h at room temperature (RT) under control conditions or with drugs in the dark using a FlexStation 3 microplate reader (Molecular Devices) and imaged […] for 30 min. Stimulus buffer was added containing 5 mM K^+/0.5 mM Tl^+ and cells were imaged every 1.5 over a 190 second time course The initial rate Tl^+ uptake (Relative Fluorescence Units (RFU) per second) was determined following addition of the stimulus buffer as outlined previously (Conway et al., 2017, supra) (Lee et al., 2022, supra). […]

## C[C@@H]1CN(c2nc3c(c(Nc4ccc(C5CCCCC5)cc4)n2)COC3)CCO1 [Compound A, (R)—N-(4-cyclohexylphenyl)-2-(2-methylmorpholino)-5,7-dihydrofuro[3,4-d]pyrimidin-4-amine]
KCC2 [1]; 0.3 μM
  level of KCC2 on the plasma membrane (surface/total): 94.5±8.4 % of control
KCC2 [1]; 3 μM
  level of KCC2 on the plasma membrane (surface/total): 104.7±8.4 % of control
[2]
  development of late recurrent discharges (LRDs): reduced
KCC2 [3]; HEK-293 cells, 1% β-cyclodextrin (BCD) vehicle, read-out: EC50 for KCC2 as measured by TI+ flux
  EC50: 261 ± 22.2 nM
KCC2 [3]; saturating concentration of 3 μM, 1% BCD vehicle
  maximum potentiation of KCC2: 90%
